One experiment deals with COX-2 enzymes. Briefly: Immunohistochemistry assay of COX-2 enzymes in ex vivo porcine ear skin (Franz diffusion cell, diaminobenzidine staining). It counts as cell-based. The following applies: substance as donor phase in Franz cell, after six hours versus 0 hours.
The subject of another experiment is skin. To be noted: applied directly to the skin; Xi et al. 2000; cited from earlier work.
The test system of a further experiment is COX-2. Briefly: Western Blotting of COX-2 expression in porcine skin after topical application. It counts as cell-based. To be noted: topically applied, water control assigned 100%, FIG. 5. How it is done: A Western Blotting experiment was carried out to determine the effect of topically applied representative compounds of the invention DGLA and 15-HETrE on the expression of COX-2 in porcine skin. Water was used as a control.
The porcine skin membranes (as described in Example 1) were gently cleaned with de-ionised water before being homogenized (Silverson, Chesham, UK) in a RIPA lysis buffer [50 mM Tris-HCl (PH 7.4), 150 mM NaCl, 1 mM PMSF, 1 mM EDTA, 5 μg mL^−1 aprotinin, 5 μg mL^−1 leupeptin, 1% Triton X-100, 1% sodium deoxycholate, 0.1% SDS]. After 15 min incubation on ice, the lysates were clarified by centrifugation at 14000×g for 2×15 min and the supernatant stored at −80° C. for subsequent protein analysis.
Aliquots of 30 μg total protein were separated by SDS-PAGE, transferred to nitrocelullose membranes using the Trans-Blot electrophoretic Transfer Cell and briefly stained with Ponceau S to verify effective transfer. Immunoblots were incubated for 1 h in a blocking solution [tris-buffered saline (TBS)-Tween 20 containing 5% (w/v) commercial skimmed milk powder (Marvel) at room temperature. After washing, the membrane was probed overnight at 4° C. with COX-2 antibody at 1:1000, 5-LOX at 1:1000 and iNOS at 1:500 in (1:20 and 1:100 western blocking reagent and sodium azide solution respectively made up to volume with TBS tween). […]

For the compound `CCCCCC(O)/C=C/C=C\C/C=C\CCCCCCC(=O)O` (stereo not drawn) [15-HETrE, 15-Hydroxy-eicosa-8Z, 11Z, 13E-trienoic acid], in the experiment with COX-2 enzymes, the “amount of dark stain (diaminobenzidine, COX-2 enzymes present in the skin)” value (shortened to “amount of dark stain”) is on record as “the amount of dark stain has reduced”. Further, in the experiment with skin, the antiproliferative properties result was “antiproliferative properties”. In the experiment on COX-2, the “COX-2 expression relative to the control” value is given as “significant reduction”.
For `CCCCC/C=C\C/C=C\C/C=C\CCCCCCC(=O)O` [DGLA, Eicosa-8Z, 11Z, 14Z-trienoic acid], in the experiment on COX-2 enzymes, the “amount of dark stain” value was “the amount of dark stain has reduced”. Besides, in the experiment on COX-2, the “COX-2 expression relative to the control” value was “significant reduction”.
For the compound `CC(C(=O)O)c1cccc(C(=O)c2ccccc2)c1` (stereo not drawn) [ketoprofen, reference compound], the “amount of dark stain” value in the experiment on COX-2 enzymes is “the amount of dark stain has reduced”.

Source of the values: patent US9421163B2, “Topical compositions comprising polyunsaturated fatty acids” (Dignity Sciences Limited, priority 2009, dated 2016).
